Test results published in patent US7074789B2, “Kinase inhibitors” (Amgen Inc., priority 1999, dated 2006).

What was measured:
Assay type in all cases: biochemical
AKT = target: T1, AKT (Homo sapiens, UniProt Q9Y243); assay: Kinase inhibition assay (33P transfer), AKT; details: Table 2, kinase inhibition class; read-out: AKT3-1
T1 construct: Kinases are expressed as either kinase domains or full length constructs; made in house
In short: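 Liquid scintillation counting of 33P on plate-bound synthetic substrates gives kinase activity. Plates are washed in 0.5% phosphoric acid first; kinases are tagged recombinant proteins from E. coli or baculovirus-infected High Five cells.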

ErbB4 = target: T2, ErbB4 (Homo sapiens, UniProt Q15303); assay: Kinase inhibition assay (33P transfer), ErbB4; details: read-out: ErbB4-1
T2 construct: Kinases are expressed as either kinase domains or full length constructs; made in house
T2 sequence (Q15303 26-1308, species assumed): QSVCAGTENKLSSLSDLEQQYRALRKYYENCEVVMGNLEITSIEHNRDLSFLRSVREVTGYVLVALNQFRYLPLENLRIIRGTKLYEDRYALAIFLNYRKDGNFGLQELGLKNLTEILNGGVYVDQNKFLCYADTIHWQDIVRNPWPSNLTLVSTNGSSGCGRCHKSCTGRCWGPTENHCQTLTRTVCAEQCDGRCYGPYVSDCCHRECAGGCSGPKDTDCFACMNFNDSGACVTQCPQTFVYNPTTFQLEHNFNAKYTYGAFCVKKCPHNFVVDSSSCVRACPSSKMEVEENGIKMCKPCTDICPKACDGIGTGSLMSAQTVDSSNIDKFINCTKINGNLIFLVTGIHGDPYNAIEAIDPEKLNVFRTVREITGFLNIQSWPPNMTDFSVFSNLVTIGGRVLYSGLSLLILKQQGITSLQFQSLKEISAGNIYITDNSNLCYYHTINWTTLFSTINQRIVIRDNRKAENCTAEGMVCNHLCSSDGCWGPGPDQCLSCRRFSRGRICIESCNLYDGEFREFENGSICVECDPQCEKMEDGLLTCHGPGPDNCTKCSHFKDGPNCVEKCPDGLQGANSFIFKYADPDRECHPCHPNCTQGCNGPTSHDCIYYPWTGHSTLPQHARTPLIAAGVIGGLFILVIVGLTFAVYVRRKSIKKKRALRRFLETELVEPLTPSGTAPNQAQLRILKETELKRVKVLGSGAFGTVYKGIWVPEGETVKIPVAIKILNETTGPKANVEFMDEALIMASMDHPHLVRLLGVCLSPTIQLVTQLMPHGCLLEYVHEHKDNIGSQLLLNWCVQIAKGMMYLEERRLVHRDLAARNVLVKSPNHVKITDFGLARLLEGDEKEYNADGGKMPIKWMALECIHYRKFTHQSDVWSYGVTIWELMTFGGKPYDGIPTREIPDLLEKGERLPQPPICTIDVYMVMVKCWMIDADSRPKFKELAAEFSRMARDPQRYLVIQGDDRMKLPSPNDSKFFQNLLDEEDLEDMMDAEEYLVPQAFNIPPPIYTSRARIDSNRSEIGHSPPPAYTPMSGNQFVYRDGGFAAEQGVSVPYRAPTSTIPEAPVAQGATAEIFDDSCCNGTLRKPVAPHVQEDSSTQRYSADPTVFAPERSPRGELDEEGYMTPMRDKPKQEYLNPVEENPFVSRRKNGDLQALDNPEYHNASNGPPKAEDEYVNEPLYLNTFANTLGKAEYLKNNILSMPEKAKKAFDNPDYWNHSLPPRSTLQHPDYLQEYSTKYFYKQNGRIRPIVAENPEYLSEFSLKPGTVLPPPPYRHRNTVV

c-Met = target: T3, c-Met (Homo sapiens, UniProt P08581); assay: Kinase inhibition assay (33P transfer), c-Met; details: Table 2, kinase inhibition class; read-out: Met-1
T3 construct: Kinases are expressed as either kinase domains or full length constructs; made in house
T3 sequence (P08581 25-1390): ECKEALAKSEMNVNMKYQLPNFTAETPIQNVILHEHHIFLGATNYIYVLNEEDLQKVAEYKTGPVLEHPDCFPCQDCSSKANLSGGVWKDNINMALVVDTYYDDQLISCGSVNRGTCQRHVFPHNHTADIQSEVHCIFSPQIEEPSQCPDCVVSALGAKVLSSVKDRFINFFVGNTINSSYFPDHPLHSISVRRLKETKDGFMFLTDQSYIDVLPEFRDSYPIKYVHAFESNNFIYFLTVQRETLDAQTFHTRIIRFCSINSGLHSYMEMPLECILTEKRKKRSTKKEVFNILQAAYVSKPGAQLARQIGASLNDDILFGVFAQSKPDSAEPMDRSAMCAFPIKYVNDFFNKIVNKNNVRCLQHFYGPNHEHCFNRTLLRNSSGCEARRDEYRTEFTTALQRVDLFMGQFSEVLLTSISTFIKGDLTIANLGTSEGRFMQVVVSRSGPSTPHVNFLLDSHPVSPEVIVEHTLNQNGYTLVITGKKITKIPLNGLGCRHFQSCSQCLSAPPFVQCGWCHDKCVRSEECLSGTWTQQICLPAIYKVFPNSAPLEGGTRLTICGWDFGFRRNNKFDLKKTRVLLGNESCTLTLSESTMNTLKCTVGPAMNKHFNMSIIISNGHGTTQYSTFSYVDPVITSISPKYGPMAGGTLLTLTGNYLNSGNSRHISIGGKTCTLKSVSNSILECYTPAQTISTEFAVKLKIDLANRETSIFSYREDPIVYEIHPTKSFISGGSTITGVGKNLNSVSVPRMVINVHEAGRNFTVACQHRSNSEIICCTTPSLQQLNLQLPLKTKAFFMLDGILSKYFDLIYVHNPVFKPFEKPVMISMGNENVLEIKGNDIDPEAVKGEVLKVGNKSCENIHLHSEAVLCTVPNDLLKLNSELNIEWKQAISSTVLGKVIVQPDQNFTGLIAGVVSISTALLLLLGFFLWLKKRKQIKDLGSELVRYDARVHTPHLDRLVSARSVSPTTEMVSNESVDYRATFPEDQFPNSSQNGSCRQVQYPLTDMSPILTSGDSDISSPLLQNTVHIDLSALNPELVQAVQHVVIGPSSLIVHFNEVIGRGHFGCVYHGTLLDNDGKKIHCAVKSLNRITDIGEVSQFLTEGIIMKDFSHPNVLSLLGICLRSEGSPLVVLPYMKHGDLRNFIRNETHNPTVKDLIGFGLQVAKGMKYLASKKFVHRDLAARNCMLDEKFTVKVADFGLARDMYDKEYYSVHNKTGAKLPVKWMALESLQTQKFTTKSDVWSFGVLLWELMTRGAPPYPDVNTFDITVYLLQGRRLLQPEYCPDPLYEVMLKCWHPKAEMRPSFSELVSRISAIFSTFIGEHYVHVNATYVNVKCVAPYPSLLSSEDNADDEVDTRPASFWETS
In short: (§1)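 Using immobilised substrate copolymers (poly(Glu,Tyr) 4:1; poly(Arg,Ser) 3:1) and [33P]ATP, purified fusion kinases were allowed to react; plates were then rinsed in 0.5% phosphoric acid and counted in a scintillation detector. Half-maximal inhibition of label transfer defines IC50.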

IGFR-1 = target: T4, IGFR-1 (Homo sapiens, UniProt P08069); assay: Kinase inhibition assay (33P transfer), IGFR-1; details: Table 2, kinase inhibition class
T4 construct: Kinases are expressed as either kinase domains or full length constructs; made in house

Lyn = target: T5, Lyn (Homo sapiens, UniProt P07948); assay: Kinase inhibition assay (33P transfer), Lyn; details: Table 6, Lyn-1 kinase inhibition class
T5 construct: Kinases are expressed as either kinase domains or full length constructs; made in house
T5 sequence (P07948 whole entry, species assumed, the tested form may be a part): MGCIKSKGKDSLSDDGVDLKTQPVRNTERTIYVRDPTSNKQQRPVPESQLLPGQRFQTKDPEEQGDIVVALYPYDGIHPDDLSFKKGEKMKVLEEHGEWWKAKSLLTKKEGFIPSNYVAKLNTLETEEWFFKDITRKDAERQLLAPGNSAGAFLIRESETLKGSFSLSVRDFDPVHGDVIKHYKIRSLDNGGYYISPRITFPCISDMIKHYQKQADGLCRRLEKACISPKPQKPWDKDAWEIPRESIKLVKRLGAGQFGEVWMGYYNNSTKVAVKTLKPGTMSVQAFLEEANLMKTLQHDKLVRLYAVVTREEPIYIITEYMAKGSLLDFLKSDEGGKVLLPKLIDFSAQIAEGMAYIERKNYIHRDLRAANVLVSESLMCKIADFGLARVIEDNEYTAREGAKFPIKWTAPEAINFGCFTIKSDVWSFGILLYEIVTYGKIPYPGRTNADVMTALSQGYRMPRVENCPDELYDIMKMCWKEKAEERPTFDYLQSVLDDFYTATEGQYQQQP
In short: as §1

Ret-1 = target: T6, Ret-1 (Homo sapiens, UniProt P07949); assay: Kinase inhibition assay (33P transfer), Ret; details: Table 6, Ret-1 kinase inhibition class
T6 construct: Kinases are expressed as either kinase domains or full length constructs; made in house
T6 sequence (P07949 29-1114): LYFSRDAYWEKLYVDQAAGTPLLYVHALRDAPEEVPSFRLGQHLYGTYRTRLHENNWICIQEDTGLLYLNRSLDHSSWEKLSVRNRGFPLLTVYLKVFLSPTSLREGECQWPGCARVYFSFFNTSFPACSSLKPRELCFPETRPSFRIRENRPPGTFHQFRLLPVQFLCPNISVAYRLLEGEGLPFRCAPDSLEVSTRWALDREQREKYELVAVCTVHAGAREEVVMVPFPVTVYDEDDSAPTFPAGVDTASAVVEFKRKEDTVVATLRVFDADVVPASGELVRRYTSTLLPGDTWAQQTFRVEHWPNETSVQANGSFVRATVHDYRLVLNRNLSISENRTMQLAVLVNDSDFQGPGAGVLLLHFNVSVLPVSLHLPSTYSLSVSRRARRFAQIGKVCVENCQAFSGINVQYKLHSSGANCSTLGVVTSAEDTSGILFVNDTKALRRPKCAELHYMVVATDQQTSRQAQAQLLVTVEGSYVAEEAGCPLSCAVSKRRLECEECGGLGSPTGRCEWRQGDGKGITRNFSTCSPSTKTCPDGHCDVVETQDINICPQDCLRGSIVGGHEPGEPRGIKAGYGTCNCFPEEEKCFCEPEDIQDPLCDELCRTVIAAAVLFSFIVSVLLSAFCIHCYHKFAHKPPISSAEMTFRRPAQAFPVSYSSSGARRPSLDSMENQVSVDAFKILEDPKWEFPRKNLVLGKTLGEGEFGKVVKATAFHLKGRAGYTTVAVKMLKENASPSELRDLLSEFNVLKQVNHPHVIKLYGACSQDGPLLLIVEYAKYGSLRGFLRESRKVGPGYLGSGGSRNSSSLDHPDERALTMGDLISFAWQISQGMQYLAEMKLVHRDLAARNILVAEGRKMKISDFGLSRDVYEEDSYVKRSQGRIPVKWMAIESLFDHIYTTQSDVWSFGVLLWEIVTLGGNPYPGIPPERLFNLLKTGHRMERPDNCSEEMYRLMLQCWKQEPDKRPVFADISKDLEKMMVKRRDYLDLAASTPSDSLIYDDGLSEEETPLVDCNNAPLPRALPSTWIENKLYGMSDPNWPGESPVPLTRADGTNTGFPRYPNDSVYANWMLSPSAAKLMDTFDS

EPHB4 = target: T7, EPHB4 (Homo sapiens, UniProt P54760); assay: Kinase inhibition assay (33P transfer), EPHB4; details: read-out: EPHB4-1
T7 construct: Kinases are expressed as either kinase domains or full length constructs; made in house
T7 sequence (P54760 16-987): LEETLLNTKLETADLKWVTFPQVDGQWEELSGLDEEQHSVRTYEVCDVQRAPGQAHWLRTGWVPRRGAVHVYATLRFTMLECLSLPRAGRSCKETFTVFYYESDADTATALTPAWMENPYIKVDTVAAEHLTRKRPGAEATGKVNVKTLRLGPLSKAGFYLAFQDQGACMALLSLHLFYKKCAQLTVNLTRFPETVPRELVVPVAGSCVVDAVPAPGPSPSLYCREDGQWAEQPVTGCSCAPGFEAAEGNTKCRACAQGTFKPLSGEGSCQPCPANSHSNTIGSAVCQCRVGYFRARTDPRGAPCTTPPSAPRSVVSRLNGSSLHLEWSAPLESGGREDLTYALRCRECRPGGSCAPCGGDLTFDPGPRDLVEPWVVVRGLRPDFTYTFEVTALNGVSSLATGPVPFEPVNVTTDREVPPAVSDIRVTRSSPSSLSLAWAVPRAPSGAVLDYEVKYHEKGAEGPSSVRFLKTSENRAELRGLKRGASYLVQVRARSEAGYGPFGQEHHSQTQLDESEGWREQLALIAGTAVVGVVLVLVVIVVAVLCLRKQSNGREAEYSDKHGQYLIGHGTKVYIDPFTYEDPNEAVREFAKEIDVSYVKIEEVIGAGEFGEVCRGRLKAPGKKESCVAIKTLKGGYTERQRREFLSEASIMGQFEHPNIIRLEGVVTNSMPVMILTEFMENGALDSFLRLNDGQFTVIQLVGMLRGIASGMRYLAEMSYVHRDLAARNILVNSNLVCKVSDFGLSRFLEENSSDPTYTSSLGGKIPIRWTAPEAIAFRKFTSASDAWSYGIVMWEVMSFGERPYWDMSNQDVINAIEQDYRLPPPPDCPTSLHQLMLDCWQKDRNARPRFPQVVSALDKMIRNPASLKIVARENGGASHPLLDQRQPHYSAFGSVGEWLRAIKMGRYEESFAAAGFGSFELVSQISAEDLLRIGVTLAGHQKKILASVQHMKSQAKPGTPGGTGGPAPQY

ErbB2 = target: T8, ErbB2 (Homo sapiens, UniProt P04626); assay: Kinase inhibition assay (33P transfer), ErbB2; details: read-out: ErbB2-2
T8 construct: Kinases are expressed as either kinase domains or full length constructs; made in house
In short: as §1

T1 sequence (Q9Y243 whole entry, the tested form may be a part): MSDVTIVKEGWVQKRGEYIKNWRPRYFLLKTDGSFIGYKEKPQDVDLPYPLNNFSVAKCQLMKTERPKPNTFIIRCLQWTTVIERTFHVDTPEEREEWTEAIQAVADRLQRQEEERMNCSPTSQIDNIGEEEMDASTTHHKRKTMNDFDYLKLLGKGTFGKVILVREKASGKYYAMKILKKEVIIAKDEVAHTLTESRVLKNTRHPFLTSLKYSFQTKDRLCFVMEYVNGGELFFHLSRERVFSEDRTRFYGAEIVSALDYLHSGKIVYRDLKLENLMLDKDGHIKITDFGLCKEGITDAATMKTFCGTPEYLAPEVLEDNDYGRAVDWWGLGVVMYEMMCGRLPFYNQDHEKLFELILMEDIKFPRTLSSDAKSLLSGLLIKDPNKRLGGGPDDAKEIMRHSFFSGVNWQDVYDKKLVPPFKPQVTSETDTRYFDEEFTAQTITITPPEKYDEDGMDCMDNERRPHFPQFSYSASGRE

| Compound | IC50 (AKT) [µM] | IC50 (ErbB4) [µM] | IC50 (c-Met) [µM] | IC50 (IGFR-1) [µM] | IC50 (Lyn) [µM] | IC50 (Ret-1) [µM] | IC50 (EPHB4) [µM] | IC50 (ErbB2) [µM] |
| --- | --- | --- | --- | --- | --- | --- | --- | --- |
| COc1cc(Nc2ncnc(Nc3ccc(Oc4ccccc4)cc3)n2)cc(OC)c1OC [Compound 29] | > 10.1 | 0.898 to 5.39 | 7.86 to 10.1 | 5.39 to 7.86 | < 0.898 | < 0.898 | > 10.1 |  |
| COc1cc(Nc2ncnc(Nc3ccc(F)c(Cl)c3)n2)cc(OC)c1OC [Compound 61] | > 11.1 | > 11.1 | > 11.1 | < 0.986 | < 0.986 | > 11.1 | < 0.986 |  |
| COc1cc(Nc2ncnc(Nc3cccc(C)c3)n2)cc(OC)c1OC [Compound 64] | > 12.2 | > 12.2 | 6.53 to 9.53 | < 1.09 | < 1.09 | > 12.2 | 1.09 to 6.53 | 1.09 to 6.53 |
| COc1cc(Nc2ncnc(Nc3ccccc3F)n2)cc(OC)c1OC [Compound 65] | > 12.1 | > 12.1 | > 12.1 | 1.08 to 6.46 | 1.08 to 6.46 | 1.08 to 6.46 | 6.46 to 9.42 |  |
| COc1cc(Nc2ncnc(Nc3ccccc3C)n2)cc(OC)c1OC [Compound 67] | > 12.2 |  | > 12.2 | 9.53 to 12.2 | < 1.09 | > 12.2 | 6.53 to 9.53 |  |
| COc1cc(Nc2ncnc(Nc3cc(Cl)c(O)c(Cl)c3)n2)cc(OC)c1OC [Compound 68] | > 10.3 | > 10.3 | 7.99 to 10.3 | < 0.913 | < 0.913 | 0.913 to 5.48 | 0.913 to 5.48 |  |
| COc1cc(Nc2ncnc(Nc3ccc4cn[nH]c4c3)n2)cc(OC)c1OC [Compound 70] | > 11.4 | 1.02 to 6.1 | > 11.4 | 1.02 to 6.1 | 1.02 to 6.1 | 1.02 to 6.1 | 1.02 to 6.1 |  |
| COc1cc(Nc2ncnc(Nc3ccc(Cl)cc3)n2)cc(OC)c1OC [Compound 72] | > 11.6 | 1.03 to 6.19 | 9.02 to 11.6 | < 1.03 |  | < 1.03 | 1.03 to 6.19 | 1.03 to 6.19 |
| COc1cc(Nc2ncnc(Nc3cccc(Br)c3)n2)cc(OC)c1OC [Compound 75] | 8.1 to 10.4 | > 10.4 | 8.1 to 10.4 | < 0.925 | < 0.925 | > 10.4 | < 0.925 |  |
| COc1cc(Nc2ncnc(Nc3ccc(O)cc3Cl)n2)cc(OC)c1OC [Compound 77] | > 11.1 |  | > 11.1 | 0.991 to 5.94 | < 0.991 | 0.991 to 5.94 | 0.991 to 5.94 |  |
| COc1cc(Nc2ncnc(Nc3cccc(O)c3)n2)cc(OC)c1OC [Compound 78] | > 12.2 | 1.08 to 6.5 | > 12.2 | 1.08 to 6.5 | < 1.08 | < 1.08 | < 1.08 |  |
| COc1cc(Nc2ncnc(Nc3ccc4[nH]ncc4c3)n2)cc(OC)c1OC [Compound 79] | > 11.4 | 1.02 to 6.1 | 6.1 to 8.9 | < 1.02 | < 1.02 | > 11.4 | < 1.02 |  |
| COc1cc(Nc2ncnc(Nc3ccc(C)c(O)c3)n2)cc(OC)c1OC [Compound 83] | > 11.7 | 1.04 to 6.26 | > 11.7 | 1.04 to 6.26 | < 1.04 | < 1.04 | 1.04 to 6.26 | < 1.04 |
| COc1cc(Nc2ncnc(Nc3ccc(O)cc3)n2)cc(OC)c1OC [Compound 85] | > 12.2 | 1.08 to 6.5 | > 12.2 | 1.08 to 6.5 | < 1.08 | 1.08 to 6.5 | 1.08 to 6.5 |  |
| COc1cc(Nc2ncnc(Nc3cc(OC)c(OC)c(OC)c3)n2)cc(OC)c1 [Compound 86] | > 10.9 | 0.968 to 5.81 | > 10.9 | < 0.968 | > 10.9 | 0.968 to 5.81 | > 10.9 | 0.968 to 5.81 |
| COc1cccc(Nc2ncnc(Nc3cc(OC)c(OC)c(OC)c3)n2)c1 [Compound 87] | > 11.7 | 9.13 to 11.7 | > 11.7 | < 1.04 | 1.04 to 6.26 | 1.04 to 6.26 | > 11.7 | < 1.04 |
| COc1ccc(Nc2ncnc(Nc3cc(OC)c(OC)c(OC)c3)n2)cc1 [Compound 89] | > 11.7 |  | > 11.7 | 1.04 to 6.26 | 1.04 to 6.26 | 1.04 to 6.26 | > 11.7 |  |
| COc1ccccc1Nc1ncnc(Nc2cc(OC)c(OC)c(OC)c2)n1 [Compound 90] | > 11.7 |  | > 11.7 | 1.04 to 6.26 | < 1.04 | 1.04 to 6.26 | 1.04 to 6.26 |  |
| COc1cc(Nc2ncnc(Nc3ccccc3)n2)cc(OC)c1OC [Compound 91] | > 12.7 |  | > 12.7 | 1.13 to 6.79 | 1.13 to 6.79 | 1.13 to 6.79 | 6.79 to 9.9 | 1.13 to 6.79 |
| COc1cc(Nc2ncnc(Nc3ccc(N)cc3)n2)cc(OC)c1OC [Compound 92] | 9.5 to 12.2 |  | 1.09 to 6.51 | 1.09 to 6.51 | 1.09 to 6.51 | > 12.2 | 6.51 to 9.5 |  |
| COc1cc(Nc2ncnc(Nc3cc(C)c(O)cc3C)n2)cc(OC)c1OC [Compound 94] | > 11.3 | 1.01 to 6.04 | > 11.3 | 6.04 to 8.81 | < 1.01 | > 11.3 | 1.01 to 6.04 |  |
| COc1cc(Nc2ncnc(Nc3ccc4ccccc4c3)n2)cc(OC)c1OC [Compound 96] | > 11.2 | 0.991 to 5.95 | > 11.2 |  | 0.991 to 5.95 | 5.95 to 8.68 | > 11.2 | < 0.991 |
| COc1cc(Nc2ncnc(Nc3cccc4cccnc34)n2)cc(OC)c1OC [Compound 97] | > 11.1 | > 11.1 | > 11.1 | > 11.1 | 0.989 to 5.93 | 0.989 to 5.93 | > 11.1 | > 11.1 |
| NC(=O)c1ccc(Nc2ncnc(Nc3cc(-c4ccco4)n[nH]3)n2)cc1 [Compound 341] | > 12.4 | > 12.4 | 1.1 to 6.62 | 1.1 to 6.62 | > 12.4 | < 1.1 | 1.1 to 6.62 |  |
| COC(=O)c1cccc(Nc2ncnc(Nc3cc(-c4ccco4)n[nH]3)n2)c1 [Compound 344] | > 11.9 | > 11.9 | 1.06 to 6.36 | 1.06 to 6.36 | > 11.9 | 1.06 to 6.36 | 1.06 to 6.36 |  |
| COc1cc(Nc2ncnc(-n3cc(CC(N)=O)c4ccccc43)n2)cc(OC)c1OC [Compound 353] | > 10.4 | > 10.4 | > 10.4 | > 10.4 | > 10.4 | < 0.921 | > 10.4 |  |
| O=C1OCc2ccc(Nc3ncnc(Nc4cc(-c5ccco5)n[nH]4)n3)cc21 [Compound 364] | > 12 | > 12 | 1.07 to 6.39 | 1.07 to 6.39 | 9.32 to 12 | 1.07 to 6.39 | 1.07 to 6.39 |  |
| COc1cc(Nc2ncnc(Nc3ccc(OCc4ccccc4)cc3)n2)cc(OC)c1OC [Compound 926] | > 9.79 | > 9.79 | 7.62 to 9.79 | > 9.79 | 0.871 to 5.22 | 7.62 to 9.79 | > 9.79 |  |
